Measured values as given in article PMC9534909, “BMS794833 inhibits macrophage efferocytosis by directly binding to MERTK and inhibiting its activity” (Experimental & Molecular Medicine, 2022).
Numbering of substitutions follows the chain as printed.

Columns and labels:
MERTK [1] = biological target: T1, MERTK (Homo sapiens, UniProt Q12866, K591R/K693R/K702R/K856R); assay: X-ray cocrystal structure at […] Å; type: binding
T1 construct: kinase domain (residues 571–864), KR mutant
T1 sequence (Q12866 571-864 K591R/K693R/K702R/K856R): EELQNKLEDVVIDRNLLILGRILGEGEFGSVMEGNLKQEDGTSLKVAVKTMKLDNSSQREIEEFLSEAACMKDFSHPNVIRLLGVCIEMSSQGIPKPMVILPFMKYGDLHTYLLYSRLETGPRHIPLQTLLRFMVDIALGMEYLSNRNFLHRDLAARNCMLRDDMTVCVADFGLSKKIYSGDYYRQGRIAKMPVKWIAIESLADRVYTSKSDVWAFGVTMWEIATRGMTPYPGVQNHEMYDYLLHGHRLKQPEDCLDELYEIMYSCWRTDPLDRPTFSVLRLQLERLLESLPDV

MERTK [2] = biological target: T2, MERTK (Homo sapiens, UniProt Q12866); assay: HTRF KinEASE-TK kinase kinetic assay; type: biochemical
T2 construct: kinase domain (residues 571–864, wild type; WT)
T2 sequence (Q12866 571-864): T1 sequence (Q12866 571-864 K591R/K693R/K702R/K856R) with R21K, R123K, R132K, R286K

`Nc1nccc(Oc2ccc(NC(=O)c3c[nH]cc(-c4ccc(F)cc4)c3=O)cc2F)c1Cl` [BMS794833, N-[4-(2-amino-3-chloropyridin-4-yl)oxy-3-fluorophenyl]-5-(4-fluorophenyl)-4-oxo-1H-pyridine-3-carboxamide] was tested, and the “X-ray cocrystal structure at 2.16 Å” value (MERTK [1]) was “clear electron density map for BMS794833 showed that it occupied both the ATP-binding pocket and the allosteric back pocket” and the Ki (MERTK [2]) was 22.4 nM.
